pIC50: −log10 of the molar value.
Experiments:
[1] = target: E3 ubiquitin-protein ligase XIAP (Homo sapiens, UniProt P98170); assay: In vitro Competitive Displacement Binding Assays : Modified SMAC peptides and compounds were tested for their ability to displace the fluorescent tracer from either XIAP, clAP-1 or clAP-2. BIR3 domains of clAP-1 , clAP-2 and XIAP were incubated with test compounds or SMAC based peptides and their respective peptide probes (Peptide Protein Research) in assay buffer (50mM Hepes pH 7.5, […] Tween-
[2] = target: Baculoviral IAP repeat-containing protein 2 (Homo sapiens, UniProt Q13490); assay: as above

| pIC50 [1] | pIC50 [2] | Compound |
| --- | --- | --- |
| 5.62 | – | CC(C)[C@H]1CN[C@H](C)CN1CC(=O)N1CCc2ccc(Br)cc21 |
| – | 4.40 | C[C@@H]1CN(CC(=O)N2CCc3ccc(Br)cc32)CCN1 |
| – | 7.80 | COC[C@H]1CN[C@H](C)CN1CC(=O)N1CC(C)(C)c2cnc(CCC(C)C)cc21 |
